Columns and labels:
[1] = test system: K562 nude mice transplanted tumor; assay: Inhibition of growth of K562 nude mice transplanted tumor (pre-trial, experiment 1, experiment 2); type: in vivo, Balb/c nude mice; settings: for tumor sizes: n=6
Excerpt: 2.4 K562 cell: primary K562 cell is derived from bone marrow of a patient having leukemia, introduced by Blood Research Institute from abroad, stored and passaged in Pathologic Cell Bank; cultured in RPMI1640 medium (comprising 10% fetal bovine serum).
2.6 experimental animal: Balb/c nude mice, 4~5 weeks old, weight: 17~20 g, gender: half male and half female. Experimental Animal Institute of the Chinese Academy of Medical Sciences, certification number of experimental animals: SCXK (JING) 2005-0013.
3.1.1 Balb/c nude mice were subjected to 3.0Gy whole-body irradiation, after subcutaneous inoculation of primary K562 cells. About 4 weeks after inoculation, tumor masses in growing were removed and transplanted into […], and this process was repeated for 2~3 passages to establish high oncogenic K562 cell line.
(§1) 3.1.2 Nude mice were subjected to 3.0Gy whole-body irradiation, after subcutaneous inoculation of the K562 cells. One week after inoculation, nude mice with visible tumors were divided into the following 4 groups each consisting of 6 animals. The following dosages were administered for 3 continuous weeks, with 7 doses per week, a total of 21 doses.
Model control group: intraperitoneal injection of 20% aqueous solution of excipient at 0.2 ml/animal.
High dosage group: intraperitoneal injection of artemether at 150 ml/kg.
Middle dosage group: intraperitoneal injection of artemether at 100 ml/kg.
Low dosage group: intraperitoneal injection of artemether at 50 ml/kg.
(§2) Nude mice were subjected to a 3.0Gy whole-body irradiation, after subcutaneous inoculation of the K562 cells. One week after inoculation, nude mice with visible tumors were divided into the following 5 groups each consisting of 6 animals. The following dosages were administered for 3 continuous weeks, with 5 doses per week, a total of 15 doses.
Positive control group: intraperitoneal injection of cyclophosphamide at 10 ml/kg.
High dosage group: intraperitoneal injection of artemether at 100 ml/kg.
Middle dosage group: intraperitoneal injection of artemether at 60 ml/kg.
Low dosage group: intraperitoneal injection of artemether at 40 ml/kg.
(§3) Nude mice were subjected to a 3.0Gy whole-body irradiation, after subcutaneous inoculation of the K562 cells. One week after inoculation, nude mice with visible tumors were divided into the following 5 groups each consisting of 6 nude mice.
Model control group: intraperitoneal injection of 20% solution of excipient at 0.2ml/animal. The dosage was administered for 3 weeks, with 7 doses per week, a total of 21 doses.
Positive control group: intraperitoneal injection of cyclophosphamide at 10 ml/kg. The dosage was administered for 3 weeks, with 7 doses per week, a total of 21 doses.
(§4) High dosage group: intraperitoneal injection of artemether at 100 ml/kg. The dosage was administered for 3 weeks, with 5 doses per week, a total of 15 doses.
(§5) Middle dosage group: intraperitoneal injection of artemether at 60 ml/kg. The dosage was administered for 3 weeks, with 7 doses per week, a total of 21 doses.
(§6) Low dosage group: intraperitoneal injection of artemether at 40 ml/kg. The dosage was administered for 3 weeks, with 7 doses per week, a total of 21 doses.

[2] = test system: K562 nude mice transplanted tumor; assay: Apoptosis of tumor cells from tumor-bearing animals (pre-trial); type: in vivo, Balb/c nude mice; settings: 21 doses
Method: as §1
The effect of the drug on the apoptosis of the tumor cell: from the result of pre-trial (table 3), it appears that the apoptosis ratio in control group is higher than that in the treated group. In fact, this is because the tutor of control group grows more rapidly, has a larger volume, and thus a more significant necrosis. […] However, cells which are not inhibited by the drug form a tumor mass that are not different much from the tumor mass in control group. Therefore, in a mechanism study, tumor cells in vivo should not be used, and an in vitro test is preferred.

[3] = mouse, in vivo
Method: as §2, §3, §4, §5, §6

For `CO[C@H]1O[C@@H]2O[C@@]3(C)CC[C@H]4[C@H](C)CC[C@@H]([C@H]1C)[C@@]24OO3` [artemether], the tumor sizes ([1]; experiment 1, High dosage group: artemether 100 ml/kg intraperitoneal, 15 doses in 3 weeks, 1 week after inoculation) was 55.6±11.4 mm3, the tumor sizes ([1]; experiment 1, High dosage group: artemether 100 ml/kg intraperitoneal, 15 doses in 3 weeks, 2 weeks after inoculation) was 72.9±70.8 mm3 and the tumor sizes ([1]; experiment 1, High dosage group: artemether 100 ml/kg intraperitoneal, 15 doses in 3 weeks, 3 weeks after inoculation) was 307.9±223.2 mm3. For the same molecule, the tumor sizes ([1]; experiment 1, High dosage group: artemether 100 ml/kg intraperitoneal, 15 doses in 3 weeks, 4 weeks after inoculation) was 489.2±199.9 mm3, the tumor mass ([1]; experiment 1, High dosage group: artemether 100 ml/kg intraperitoneal, 15 doses, 4 weeks after inoculation) was 340.0 ± 237.6 mg and the tumor sizes ([1]; experiment 1, Low dosage group: artemether 40 ml/kg intraperitoneal, 15 doses in 3 weeks, 1 week after inoculation) was 42.0±9.0 mm3. For the same molecule, the tumor sizes ([1]; experiment 1, Low dosage group: artemether 40 ml/kg intraperitoneal, 15 doses in 3 weeks, 2 weeks after inoculation) was 148.4±75.6 mm3, the tumor sizes ([1]; experiment 1, Low dosage group: artemether 40 ml/kg intraperitoneal, 15 doses in 3 weeks, 3 weeks after inoculation) was 432.6±332.5 mm3 and the tumor sizes ([1]; experiment 1, Low dosage group: artemether 40 ml/kg intraperitoneal, 15 doses in 3 weeks, 4 weeks after inoculation) was 1127.7±142.8 mm3. The tumor mass ([1]; experiment 1, Low dosage group: artemether 40 ml/kg intraperitoneal, 15 doses, 4 weeks after inoculation) was 1135.0 ± 457.2 mg, the tumor sizes ([1]; experiment 1, Middle dosage group: artemether 60 ml/kg intraperitoneal, 15 doses in 3 weeks, 1 week after inoculation) was 51.3±4.5 mm3 and the tumor sizes ([1]; experiment 1, Middle dosage group: artemether 60 ml/kg intraperitoneal, 15 doses in 3 weeks, 2 weeks after inoculation) was 127.5±22.3 mm3. It also gave a tumor sizes ([1]; experiment 1, Middle dosage group: artemether 60 ml/kg intraperitoneal, 15 doses in 3 weeks, 3 weeks after inoculation) of 376.7±135.8 mm3, a tumor sizes ([1]; experiment 1, Middle dosage group: artemether 60 ml/kg intraperitoneal, 15 doses in 3 weeks, 4 weeks after inoculation) of 1035.6±248.5 mm3 and a tumor mass ([1]; experiment 1, Middle dosage group: artemether 60 ml/kg intraperitoneal, 15 doses, 4 weeks after inoculation) of 736.7 ± 247.6 mg. For the same molecule, the tumor sizes ([1]; experiment 2, High dosage group: artemether 100 ml/kg intraperitoneal, 15 doses in 3 weeks, 1 week after inoculation) was 33.9±14.4 mm3, the tumor sizes ([1]; experiment 2, High dosage group: artemether 100 ml/kg intraperitoneal, 15 doses in 3 weeks, 2 weeks after inoculation) was 75.5±27.2 mm3 and the tumor sizes ([1]; experiment 2, High dosage group: artemether 100 ml/kg intraperitoneal, 15 doses in 3 weeks, 3 weeks after inoculation) was 137.1±101.6 mm3. It also gave a tumor sizes ([1]; experiment 2, High dosage group: artemether 100 ml/kg intraperitoneal, 15 doses in 3 weeks, 4 weeks after inoculation) of 291.7±191.5 mm3, a tumor mass ([1]; experiment 2, High dosage group: artemether 100 ml/kg intraperitoneal, 15 doses, 4 weeks after inoculation) of 230 ± 1153.4 mg and a tumor sizes ([1]; experiment 2, Low dosage group: artemether 40 ml/kg intraperitoneal, 21 doses in 3 weeks, 1 week after inoculation) of 26.7±5.9 mm3. The tumor sizes ([1]; experiment 2, Low dosage group: artemether 40 ml/kg intraperitoneal, 21 doses in 3 weeks, 2 weeks after inoculation) was 203.7±127.3 mm3, the tumor sizes ([1]; experiment 2, Low dosage group: artemether 40 ml/kg intraperitoneal, 21 doses in 3 weeks, 3 weeks after inoculation) was 297.4±86.6 mm3 and the tumor sizes ([1]; experiment 2, Low dosage group: artemether 40 ml/kg intraperitoneal, 21 doses in 3 weeks, 4 weeks after inoculation) was 729.2±272.8 mm3. The tumor mass ([1]; experiment 2, Low dosage group: artemether 40 ml/kg intraperitoneal, 21 doses, 4 weeks after inoculation) was 645 ± 314.7 mg, the tumor sizes ([1]; experiment 2, Middle dosage group: artemether 60 ml/kg intraperitoneal, 21 doses in 3 weeks, 1 week after inoculation) was 22.7±7.4 mm3 and the tumor sizes ([1]; experiment 2, Middle dosage group: artemether 60 ml/kg intraperitoneal, 21 doses in 3 weeks, 2 weeks after inoculation) was 118.4±129.0 mm3. The tumor sizes ([1]; experiment 2, Middle dosage group: artemether 60 ml/kg intraperitoneal, 21 doses in 3 weeks, 3 weeks after inoculation) was 201.2±98.9 mm3, the tumor sizes ([1]; experiment 2, Middle dosage group: artemether 60 ml/kg intraperitoneal, 21 doses in 3 weeks, 4 weeks after inoculation) was 746.6±393.7 mm3 and the tumor mass ([1]; experiment 2, Middle dosage group: artemether 60 ml/kg intraperitoneal, 21 doses, 4 weeks after inoculation) was 630 ± 418.9 mg. The inhibition ratio ([1]; of tumor mass, experiment 1, Low dosage group: artemether 40 ml/kg intraperitoneal, 15 doses, 4 weeks after inoculation, listed as artemether lyophilized powder for injection) was “no significant inhibition”, the inhibition ratio ([1]; of tumor mass, experiment 1, Middle dosage group: artemether 60 ml/kg intraperitoneal, 15 doses, 4 weeks after inoculation, listed as artemether lyophilized powder for injection) was 31% and the inhibition ratio ([1]; of tumor mass, experiment 2, Low dosage group: artemether 40 ml/kg intraperitoneal, 21 doses, 4 weeks after inoculation, listed as artemether lyophilized powder for injection) was 55%. The inhibition ratio ([1]; of tumor mass, experiment 2, Middle dosage group: artemether 60 ml/kg intraperitoneal, 21 doses, 4 weeks after inoculation, listed as artemether lyophilized powder for injection) was 56%, the inhibition ratio ([1]; of tumor mass, pre-trial, Low dosage group: artemether 50 ml/kg intraperitoneal, 21 doses, 4 weeks after administration) was 41.1% and the inhibition ratio ([1]; of tumor mass, pre-trial, Middle dosage group: artemether 100 ml/kg intraperitoneal, 21 doses, 4 weeks after administration) was 64.9%. The inhibition ratio ([1]; of tumor volume, pre-trial, Low dosage group: artemether 50 ml/kg intraperitoneal, 21 doses, 3 weeks after administration) was 43.6%, the inhibition ratio ([1]; of tumor volume, pre-trial, Low dosage group: artemether 50 ml/kg intraperitoneal, 21 doses, 4 weeks after administration) was 44.6% and the inhibition ratio ([1]; of tumor volume, pre-trial, Middle dosage group: artemether 100 ml/kg intraperitoneal, 21 doses, 3 weeks after administration) was 70.3%. The inhibition ratio ([1]; of tumor volume, pre-trial, Middle dosage group: artemether 100 ml/kg intraperitoneal, 21 doses, 4 weeks after administration) was 69.1%, the tumor volume ([1]; pre-trial, High dosage group: artemether 150 ml/kg intraperitoneal, 21 doses in 3 weeks, 1 week after administration) was 55.3 mm3 and the tumor volume ([1]; pre-trial, High dosage group: artemether 150 ml/kg intraperitoneal, 21 doses in 3 weeks, 2 weeks after administration) was 136.8 mm3. The tumor volume ([1]; pre-trial, High dosage group: artemether 150 ml/kg intraperitoneal, 21 doses in 3 weeks, 3 weeks after administration) was 454.1 mm3, the tumor volume ([1]; pre-trial, High dosage group: artemether 150 ml/kg intraperitoneal, 21 doses in 3 weeks, 4 weeks after administration) was 663.1 mm3 and the tumor mass ([1]; pre-trial, High dosage group: artemether 150 ml/kg intraperitoneal, 21 doses, 4 weeks after administration) was 590 mg. For the same molecule, the tumor volume ([1]; pre-trial, Low dosage group: artemether 50 ml/kg intraperitoneal, 21 doses in 3 weeks, 1 week after administration) was 174.9±74.7 mm3, the tumor volume ([1]; pre-trial, Low dosage group: artemether 50 ml/kg intraperitoneal, 21 doses in 3 weeks, 2 weeks after administration) was 535.5±253.42 mm3 and the tumor volume ([1]; pre-trial, Low dosage group: artemether 50 ml/kg intraperitoneal, 21 doses in 3 weeks, 3 weeks after administration) was 997.1±327.71 mm3. It also gave a tumor volume ([1]; pre-trial, Low dosage group: artemether 50 ml/kg intraperitoneal, 21 doses in 3 weeks, 4 weeks after administration) of 1672.0 ± 331.0 mm3, a tumor mass ([1]; pre-trial, Low dosage group: artemether 50 ml/kg intraperitoneal, 21 doses, 4 weeks after administration) of 1436 ± 281.3 mg and a tumor volume ([1]; pre-trial, Middle dosage group: artemether 100 ml/kg intraperitoneal, 21 doses in 3 weeks, 1 week after administration) of 93.6±43.6 mm3. The tumor volume ([1]; pre-trial, Middle dosage group: artemether 100 ml/kg intraperitoneal, 21 doses in 3 weeks, 2 weeks after administration) was 219.9 ± 110.83 mm3, the tumor volume ([1]; pre-trial, Middle dosage group: artemether 100 ml/kg intraperitoneal, 21 doses in 3 weeks, 3 weeks after administration) was 524.6±265.57 mm3 and the tumor volume ([1]; pre-trial, Middle dosage group: artemether 100 ml/kg intraperitoneal, 21 doses in 3 weeks, 4 weeks after administration) was 931.8±307.9 mm3. For the same molecule, the tumor mass ([1]; pre-trial, Middle dosage group: artemether 100 ml/kg intraperitoneal, 21 doses, 4 weeks after administration) was 857 ± 574.4 mg, the apoptosis ratio ([2]; High dosage group: artemether 150 intraperitoneal) was 2.63% and the apoptosis ratio ([2]; Low dosage group: artemether 50 intraperitoneal) was 1.37±0.47%. The apoptosis ratio ([2]; Middle dosage group: artemether 100 intraperitoneal) was 2.04 ±1.58% and the toxicity [3] was “without toxicity”.

From patent EP2926812A1, “USE OF ARTEMETHER IN PREPARATION OF DRUG FOR TREATING LEUKEMIA” (Kunming Pharmaceutical Corp., priority 2012, dated 2014)
